Test results published in PubChem BioAssay (NCI).
Several values for one entry are separate records, joined by “and”; a condition that tells them apart may be missing. Equal values may be shown once.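 Cultured in 96-well plates, cells were exposed to test compound for 48 hours across five concentrations. At the GI50, growth is halved. TGI is the concentration that stops growth completely.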

What was measured:
Experiment in all cases: NCI anticancer screen, dose series, 48 h
CAKI-1 renal = tested on: CAKI-1 renal
RXF 393 renal = tested on: RXF 393 renal
SNB-75 CNS = tested on: SNB-75 CNS
NCI-H226 lung = tested on: NCI-H226 lung
RPMI-8226 leukemia = tested on: RPMI-8226 leukemia
MDA-MB-231 breast = tested on: MDA-MB-231 breast
NCI-H460 lung = tested on: NCI-H460 lung
DMS 273 small cell lung = tested on: DMS 273 small cell lung
CCRF-CEM leukemia = tested on: CCRF-CEM leukemia
MDA-N = tested on: MDA-N
UACC-62 melanoma = tested on: UACC-62 melanoma
HOP-92 NSCLC = tested on: HOP-92 NSCLC
UO-31 renal = tested on: UO-31 renal
M14 melanoma = tested on: M14 melanoma
MALME-3M melanoma = tested on: MALME-3M melanoma
HCC-2998 colon = tested on: HCC-2998 colon

## O=CC(NC(=O)N(CCCl)N=O)C(O)C(O)C(O)CO (stereo not drawn)
CAKI-1 renal
  GI50: 269 µM
  TGI: 625 µM and > 1250 µM
RXF 393 renal
  GI50: 417 µM
  TGI: 625 µM and > 1250 µM
SNB-75 CNS
  GI50: 146 µM
  TGI: 625 µM and 1050 µM
NCI-H226 lung
  GI50: 73.1 µM
  TGI: 625 µM and > 1250 µM
RPMI-8226 leukemia
  GI50: 497 µM and > 1250 µM
  TGI: 625 µM and > 1250 µM
MDA-MB-231 breast
  TGI: > 1250 µM
NCI-H460 lung
  GI50: 208 µM and 401 µM
  TGI: 625 µM and > 1250 µM and > 1210 µM
DMS 273 small cell lung
  GI50: 218 µM and > 1250 µM
  TGI: 625 µM and > 1250 µM and > 1210 µM
CCRF-CEM leukemia
  GI50: 207 µM and 515 µM
  TGI: 625 µM and > 1250 µM
MDA-N
  TGI: > 1220 µM
UACC-62 melanoma
  GI50: 18.5 µM
  TGI: 185 µM and > 1250 µM and 939 µM
HOP-92 NSCLC
  GI50: 377 µM and > 1250 µM and 362 µM
  TGI: 625 µM and > 1250 µM and > 1230 µM
UO-31 renal
  TGI: > 1250 µM
M14 melanoma
  TGI: > 1250 µM
MALME-3M melanoma
  GI50: 131 µM
  TGI: 543 µM and 767 µM
HCC-2998 colon
  GI50: > 625 µM
  TGI: > 1250 µM
